Assay results reported in US20150038545A1, “HYDROXYPHENYL PYRROLE COMPOUNDS CONTAINING AN HYDROXAMIC ACID AS HDAC INHIBITORS AND MEDICINAL APPLICATIONS THEREOF” (UNIVERSIDAD DEL PAÍS VASCO, priority 2011, published 2015).

How the values were obtained:
[1] = test system: T1, Nuclear Extract from HeLa Cells; experiment: HeLa nuclear extract HDAC inhibition assay; format: biochemical, Human; settings: HeLa cell line nuclear extract
T1 construct: 25 ng/μl Nuclear Extract from HeLa Cells: Prepared by high salt extraction of HeLa nuclei (human cervical cancer cell line)
Description: (§1) All HDAC assays were performed using acetylated AMC-labeled peptide substrate: • Substrate for isoforms HDAC1, 2, 3, 4, 5, 6, 7, 9, 10, 11 and HeLa nuclear extract assays: Acetylated fluorogenic peptide from p53 residues 379-382 (RHKKAc) (BioMol. Cat. # KI-104). • Substrate for HDAC8 assays: Acetylated fluorogenic peptide from p53 residues 379-382 (RHKAcKAc) (BioMol. Cat. # KI-178).
(§2) Enzymes: • HDAC1 assay: 75 nM Human HDAC1 (GenBank Accession No. NM_004964): Full length with C-terminal GST tag, MW=79.9 kDa, expressed by baculovirus expression system in Sf9 cells (BioMol. Cat. # SE-456). • HDAC2 assay: 5 nM Human HDAC2 (GenBank Accession No. Q92769): Full length with C-terminal His tag, MW=60 kDa, expressed by baculovirus expression system in Sf9 cells (BioMol. Cat. # SE-500). • HDAC3 assay: 2.3 nM Human HDAC3/NcoR2 (GenBank Accession No. NM_003883 for HDAC3, GenBank Accession No.NM_006312 for NcoR2): Complex of human HDAC3, full length with C-terminal His tag, MW=49.7 kDa, and human NCOR2, N-terminal GST tag, MW=39 kDa, co-expressed in baculovirus expression system (BioMol. Cat. # SE-507). • HDAC4 assay: 266 nM Human HDAC4 (GenBank Accession No. NM_006037): Amino acids 627-1085 with N-terminal GST tag, MW=75.2 kDa, expressed in baculovirus expression system (BioMol, Hamburg, Germany). • HDAC5 assay: 588 nM Human HDAC5 (GenBank Accession No. NM_001015053): Full length with Nterminal GST tag, MW=150 kDa, expressed by baculovirus expression system in Sf9 cells (BioMol, Hamburg, Germany). • HDAC6 assay: 13 nM Human HDAC6 (GenBank Accession No. BC069243): Full length with N-terminal GST tag, MW=159 kDa, expressed by baculovirus expression system in Sf9 cells (BioMol. Cat. # SE-508). • HDAC7 assay: 962 nM Human HDAC7 (GenBank Accession No. AY302468): Amino acids 518-end with N-terminal GST tag, MW=78 kDa, expressed in baculovirus expression system (BioMol, Hamburg, Germany). • HDAC8 assay: 119 nM Human HDAC8 (GenBank Accession No. NM018486): Full length, MW=42 kDa, expressed in an E. coli expression system (BioMol. Cat. # SE-145). • HDAC9 assay: 986 nM Human HDAC9 (GenBank Accession No. NM178423): Amino acids 604-1066 with C-terminal His tag, MW=50.7 kDa, expressed in baculovirus expression system (BioMol, Hamburg, Germany). • HDAC10 assay: 781 nM Human HDAC10 (GenBank Accession No. NM_032019): Amino acids 1-631 with Nterminal GST tag, MW=96 kDa, expressed by baculovirus expression system in Sf9 cells (BioMol. Cat. # SE-559). • HDAC11 assay: 781 nM Human HDAC11 (GenBank Accession No. NM_BC009676) with N-terminal GST tag, MW=66 kDa, expressed in baculovirus expression system (BioMol. Cat. # SE-560). • HeLaNuclear Extract assay: 25 ng/μl Nuclear Extract from HeLa Cells: Prepared by high salt extraction of HeLa nuclei (human cervical cancer cell line), this extract is a rich source of HDAC activity (BioMol. Cat. # KI-140).
(§3) The reactions were carried out in a 96-well microplate for fluorometry in a 50 μl reaction volume. After the deacetylation reaction, Fluor-de-Lys-Developer (BioMol Cat. # KI-105) was added to each well to digest the deacetylated substrate, thus producing the fluorescent signal. The reaction was allowed to develop for 45 minutes at 30° C. with 5% CO2; then the fluorescent signal was measured with an excitation wavelength at 360 nm and an emission wavelength at 460 nm in a microplate-reading fluorometer (GeminiXS; Molecular Devices, Sunnyvale, Calif.). […] All experiments were performed in triplicate. IC50 was calculated by fitting the experimental data to a dose-response curve. DMSO was used as negative control; Trichostatin A (Biomol Cat. # GR-309) was used as positive control inhibitor.

[2] = biological target: T2, Human HDAC3/NcoR2 (Homo sapiens, UniProt O15379); experiment: In vitro HDAC3 inhibition, fluorogenic peptide assay; format: biochemical; settings: for IC50: read-out: IC50 (nM) of enzyme activity HDAC3
T2 construct: Complex of human HDAC3, full length with C-terminal His tag, MW=49.7 kDa; His (C); purchased BioMol SE-507
T2 sequence (O15379 whole entry): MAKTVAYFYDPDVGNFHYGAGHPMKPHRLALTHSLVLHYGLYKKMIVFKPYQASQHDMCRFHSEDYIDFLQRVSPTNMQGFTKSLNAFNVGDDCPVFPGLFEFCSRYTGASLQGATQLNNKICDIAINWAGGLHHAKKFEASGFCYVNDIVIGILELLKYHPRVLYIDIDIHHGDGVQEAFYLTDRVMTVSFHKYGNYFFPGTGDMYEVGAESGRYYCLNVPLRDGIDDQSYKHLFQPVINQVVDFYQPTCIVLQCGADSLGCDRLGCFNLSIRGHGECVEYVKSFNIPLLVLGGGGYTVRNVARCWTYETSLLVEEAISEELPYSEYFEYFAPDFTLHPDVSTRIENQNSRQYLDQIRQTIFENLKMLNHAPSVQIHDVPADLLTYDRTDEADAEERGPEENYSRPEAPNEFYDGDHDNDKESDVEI
T2 sequence (Q9Y618 395-489 partner limits assumed): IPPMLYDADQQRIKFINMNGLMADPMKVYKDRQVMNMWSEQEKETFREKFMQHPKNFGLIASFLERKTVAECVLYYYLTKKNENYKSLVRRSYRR
Description: as §1, §2, §3

[3] = biological target: T3, Human HDAC1 (Homo sapiens, UniProt Q13547); experiment: In vitro HDAC1 inhibition, fluorogenic peptide assay; format: biochemical; settings: for IC50: read-out: IC50 (nM) of enzyme activity HDAC1
T3 construct: Full length with C-terminal GST tag, MW=79.9 kDa; GST (C); purchased BioMol SE-456; host or cells: Sf9 cells, baculovirus
T3 sequence (Q13547 whole entry): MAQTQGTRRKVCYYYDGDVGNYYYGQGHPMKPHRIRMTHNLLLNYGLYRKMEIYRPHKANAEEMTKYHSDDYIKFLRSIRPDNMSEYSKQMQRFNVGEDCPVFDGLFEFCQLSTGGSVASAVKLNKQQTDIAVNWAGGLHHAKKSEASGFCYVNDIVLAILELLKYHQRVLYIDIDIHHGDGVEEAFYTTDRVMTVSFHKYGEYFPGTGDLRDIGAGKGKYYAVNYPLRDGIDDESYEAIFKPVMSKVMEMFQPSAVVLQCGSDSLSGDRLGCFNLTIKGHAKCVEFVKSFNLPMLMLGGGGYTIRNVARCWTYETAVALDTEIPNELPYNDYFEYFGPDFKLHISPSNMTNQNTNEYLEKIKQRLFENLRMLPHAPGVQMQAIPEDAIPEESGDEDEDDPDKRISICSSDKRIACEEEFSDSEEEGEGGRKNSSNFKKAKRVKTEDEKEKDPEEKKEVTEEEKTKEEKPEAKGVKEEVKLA
Description: as §1, §2, §3

[4] = biological target: T4, Human HDAC8 (Homo sapiens, UniProt Q9BY41); experiment: In vitro HDAC8 inhibition, fluorogenic peptide assay; format: biochemical; settings: for IC50: read-out: IC50 (nM) of enzyme activity HDAC8
T4 construct: Full length, MW=42 kDa, expressed in an E. coli expression system; purchased BioMol SE-145; host or cells: E. coli
T4 sequence (Q9BY41 1-377): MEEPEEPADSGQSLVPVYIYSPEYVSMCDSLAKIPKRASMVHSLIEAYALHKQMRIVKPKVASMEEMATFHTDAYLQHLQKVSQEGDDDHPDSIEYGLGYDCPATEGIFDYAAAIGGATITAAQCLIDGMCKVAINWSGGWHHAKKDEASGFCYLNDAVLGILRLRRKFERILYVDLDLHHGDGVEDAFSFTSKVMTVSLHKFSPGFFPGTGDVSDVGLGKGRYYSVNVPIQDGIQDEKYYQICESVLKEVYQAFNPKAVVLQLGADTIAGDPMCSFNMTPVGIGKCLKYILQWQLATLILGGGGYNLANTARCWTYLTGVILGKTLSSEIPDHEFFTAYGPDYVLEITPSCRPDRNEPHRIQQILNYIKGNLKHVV
Description: as §1, §2, §3

[5] = biological target: T5, Human HDAC2 (Homo sapiens, UniProt Q92769); experiment: In vitro HDAC2 inhibition, fluorogenic peptide assay; format: biochemical; settings: for IC50: read-out: IC50 (nM) of enzyme activity HDAC2
T5 construct: Full length with C-terminal His tag, MW=60 kDa; His (C); purchased BioMol SE-500; host or cells: Sf9 cells, baculovirus
T5 sequence (Q92769 whole entry): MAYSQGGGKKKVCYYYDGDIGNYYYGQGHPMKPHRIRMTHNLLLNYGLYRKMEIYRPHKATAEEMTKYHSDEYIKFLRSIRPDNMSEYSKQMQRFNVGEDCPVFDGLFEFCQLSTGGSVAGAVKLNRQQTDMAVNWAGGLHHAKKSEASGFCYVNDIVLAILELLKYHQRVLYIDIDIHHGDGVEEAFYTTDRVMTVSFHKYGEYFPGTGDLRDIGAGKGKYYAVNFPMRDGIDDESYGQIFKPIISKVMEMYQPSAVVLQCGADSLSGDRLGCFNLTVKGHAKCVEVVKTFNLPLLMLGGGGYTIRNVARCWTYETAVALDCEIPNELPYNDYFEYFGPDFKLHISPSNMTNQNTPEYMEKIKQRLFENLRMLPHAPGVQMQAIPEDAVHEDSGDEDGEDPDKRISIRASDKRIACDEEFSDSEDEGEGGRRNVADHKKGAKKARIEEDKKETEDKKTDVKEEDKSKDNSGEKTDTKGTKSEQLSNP
Description: as §1, §2, §3

| SMILES | IC50 [1] [nM] | Selectivity against HDAC6 (IC50 HDACx/IC50 HDAC6) HDAC3 [2] | IC50 [2] [nM] | Selectivity against HDAC6 (IC50 HDACx/IC50 HDAC6) HDAC1 [3] | IC50 [3] [nM] | Selectivity against HDAC6 (IC50 HDACx/IC50 HDAC6) HDAC8 [4] | IC50 [4] [nM] | Selectivity against HDAC6 (IC50 HDACx/IC50 HDAC6) HDAC2 [5] | IC50 [5] [nM] |
| --- | --- | --- | --- | --- | --- | --- | --- | --- | --- |
| O=C(CCCCCNC(=O)c1[nH]c(-c2ccc(O)cc2)cc1-c1ccoc1)NO [Example 5, 3-(3-furyl)-N-(5-(hydroxycarbamoyl)pentyl)-5-(4-hydroxy-phenyl)-1H-pyrrole-2-carboxamide] | 1.6 | – | 20 | – | 19 | – | 278 | – | 56 |
| O=C(CCCCCNC(=O)c1[nH]c(-c2ccc(O)cc2)cc1-c1ccccc1)NO [Example 2, N-(6-(hydroxyamino)-6-oxohexyl)-5-(4-hydroxyphenyl)-3-phenyl-1H-pyrrole-2-carboxamide] | 18 | 32.9 | 250 | 20.1 | 153 | 21.3 | 162 | 52.1 | 396 |
| O=C(CCCCCNC(=O)c1[nH]c(-c2ccoc2)cc1-c1ccc(O)cc1)NO [Example 4, 5-(3-furyl)-N-(5-(Hydroxycarbamoyl)pentyl)-3-(4-hydroxy-phenyl)-1H-pyrrole-2-carboxamide] | 33 | – | 341 | – | 353 | – | 591 | – | 864 |
| COc1ccc(-c2cc(-c3ccccc3)c(C(=O)NCCCCCC(=O)NO)[nH]2)cc1 [Compound B, N-[6-(hydroxyamino)-6-oxohexyl]-5-(4-methoxyphenyl)-3-phenyl-1H-pyrrole-2-carboxamide, reference compound] | 27 | 13.0 | 415 | 8.6 | 276 | 5.4 | 174 | 28.7 | 918 |
| O=C(CCCCCNC(=O)c1[nH]c(-c2ccccc2)cc1-c1ccc(O)cc1)NO [Example 1, N-(6-(hydroxyamino)-6-oxohexyl)-3-(4-hydroxyphenyl)-5-phenyl-1H-pyrrole-2-carboxamide] | 31 | 31.2 | 437 | 25.3 | 354 | 54.8 | 767 | 81.1 | 1140 |

Other lines, results leading:

| IC50 [1] [nM] | Selectivity against HDAC6 (IC50 HDACx/IC50 HDAC6) HDAC3 [2] | IC50 [2] [nM] | Selectivity against HDAC6 (IC50 HDACx/IC50 HDAC6) HDAC1 [3] | IC50 [3] [nM] | Selectivity against HDAC6 (IC50 HDACx/IC50 HDAC6) HDAC8 [4] | IC50 [4] [nM] | Selectivity against HDAC6 (IC50 HDACx/IC50 HDAC6) HDAC2 [5] | IC50 [5] [nM] | SMILES |
| --- | --- | --- | --- | --- | --- | --- | --- | --- | --- |
| 61 | 28.6 | 572 | 23.2 | 464 | 9.6 | 192 | 64.7 | 1290 | COc1ccc(-c2cc(-c3ccccc3)[nH]c2C(=O)NCCCCCC(=O)NO)cc1 [Compound A, N-[6-(hydroxyamino)-6-oxohexyl]-3-(4-methoxyphenyl)-5-phenyl-1H-pyrrole-2-carboxamide, reference compound] |
| 46 | – | 441 | – | 438 | – | 975 | – | 1270 | O=C(CCCCCNC(=O)c1[nH]c(-c2ccsc2)cc1-c1ccc(O)cc1)NO [Example 3, N-(5-(hydroxycarbamoyl)pentyl)-3-(4-hydroxyphenyl)-5-(3-thienyl)-1H-pyrrole-2-carboxamide] |
| 7.3 | – | 71 | – | 49 | – | 104 | – | 203 | O=C(CCCCCNC(=O)c1[nH]c(-c2ccc(O)cc2)cc1-c1ccsc1)NO [Example 6, N-(5-(hydroxycarbamoyl)pentyl)-5-(4-hydroxyphenyl)-3-(3-thienyl)-1H-pyrrole-2-carboxamide] |
